Laboratory results taken from the supplement of paper PMC10883282.
± gives the standard deviation of the averaged measurements.

Tested on: RD-ES
Experiment: relative viability vs DMSO control (72 h) (fraction); higher = more viable cells
How it was run: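 Relative viability is percent growth read by ATPLite and averaged over up to triplicate wells. Sarcoma cells were seeded in 384-well plates to reach 80–90% confluence and given 2.5 µl of serially diluted compound after 24 h, from source plates of 10 mM to 0.0002 mM. Incubation lasted 72 h at 37 °C, 5% CO2, with 0.1% DMSO vehicle and a 5 µM positive control, and the data were rescaled so 1 equals full and 0 equals none.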

| SMILES | relative viability (0.00017 µM) | relative viability (0.00051 µM) | relative viability (0.00152 µM) | relative viability (0.00457 µM) | relative viability (0.01372 µM) | relative viability (0.04115 µM) | relative viability (0.1235 µM) | relative viability (0.3704 µM) | relative viability (1.111 µM) | relative viability (3.333 µM) | relative viability (10 µM) |
| --- | --- | --- | --- | --- | --- | --- | --- | --- | --- | --- | --- |
| CC[C@H](Nc1ncnc2[nH]cnc12)c1nc2cccc(F)c2c(=O)n1-c1ccccc1 [Idelalisib] | 0.9939 ± 0.0089 | 0.99 ± 0.033 | 0.977 ± 0.04 | 0.984 ± 0.037 | 0.977 ± 0.033 | 0.98 ± 0.019 | 0.982 ± 0.028 | 0.97 ± 0.027 | 0.909 ± 0.026 | 0.88 ± 0.034 | 0.744 ± 0.019 |
| Cc1cc(Nc2ncnc3ccc(NC4=NC(C)(C)CO4)cc23)ccc1Oc1ccn2ncnc2c1 [Tucatinib] | 0.989 ± 0.03 | 0.999 ± 0.035 | 1 ± 0.027 | 1 ± 0.035 | 0.95 ± 0.055 | 0.996 ± 0.027 | 0.991 ± 0.014 | 0.974 ± 0.02 | 0.985 ± 0.037 | 0.983 ± 0.031 | 0.9422 ± 0.0042 |
| N#CC[C@H](C1CCCC1)n1cc(-c2ncnc3[nH]ccc23)cn1 [Ruxolitinib] | 0.938 ± 0.025 | 0.967 ± 0.014 | 0.95 ± 0.031 | 0.949 ± 0.024 | 0.932 ± 0.025 | 0.939 ± 0.05 | 0.933 ± 0.057 | 0.946 ± 0.029 | 0.939 ± 0.028 | 0.941 ± 0.028 | 0.954 ± 0.065 |
| Cc1ccc(F)c(NC(=O)Nc2ccc(-c3cccc4[nH]nc(N)c34)cc2)c1 [Linifanib] | 1 ± 0.043 | 0.998 ± 0.012 | 0.994 ± 0.011 | 0.978 ± 0.023 | 1 ± 0.028 | 1.01 ± 0.048 | 1 ± 0.014 | 0.982 ± 0.038 | 1.01 ± 0.018 | 0.975 ± 0.022 | 0.983 ± 0.043 |
| Cc1nc(NC(=O)N2CCC[C@H]2C(N)=O)sc1-c1ccnc(C(C)(C)C(F)(F)F)c1 [Alpelisib] | 0.955 ± 0.069 | 0.949 ± 0.05 | 0.95 ± 0.05 | 0.944 ± 0.046 | 0.894 ± 0.017 | 0.852 ± 0.028 | 0.733 ± 0.025 | 0.641 ± 0.029 | 0.559 ± 0.0059 | 0.485 ± 0.025 | 0.375 ± 0.009 |
| CC(C)(C)c1cc(NC(=O)Nc2ccc(-c3cn4c(n3)sc3cc(OCCN5CCOCC5)ccc34)cc2)no1 [Quizartinib] | 0.968 ± 0.018 | 0.983 ± 0.028 | 0.993 ± 0.018 | 0.9932 ± 0.0065 | 0.993 ± 0.011 | 0.995 ± 0.005 | 0.986 ± 0.02 | 1 ± 0.025 | 0.991 ± 0.019 | 0.951 ± 0.043 | 0.869 ± 0.035 |
| CNC(=O)c1ccc(-c2cnc3ncc(Cc4ccc5ncccc5c4)n3n2)cc1F [Capmatinib] | 0.992 ± 0.014 | 1.005 ± 0.0083 | 0.9871 ± 0.0074 | 0.994 ± 0.017 | 0.98 ± 0.021 | 1 ± 0.018 | 1.01 ± 0.023 | 1.03 ± 0.024 | 1.03 ± 0.025 | 1.02 ± 0.011 | 1 ± 0.028 |
| CC(C)N1CCN(Cc2cnc(-c3cc(-c4cccc5[nH]ccc45)cc4[nH]ncc34)o2)CC1 [Nemiralisib] | 1 ± 0.036 | 1 ± 0.016 | 0.973 ± 0.028 | 0.978 ± 0.023 | 0.987 ± 0.03 | 1.02 ± 0.042 | 0.9842 ± 0.004 | 1.01 ± 0.041 | 0.984 ± 0.036 | 0.854 ± 0.016 | 0.223 ± 0.033 |
| C[C@@H](c1ccc2nccn2c1)n1nnc2ncc(-c3cnn(C)c3)nc21 [Volitinib] | 0.975 ± 0.017 | 1.01 ± 0.019 | 0.98 ± 0.043 | 0.998 ± 0.022 | 1 ± 0.018 | 1 ± 0.013 | 1.02 ± 0.017 | 1.03 ± 0.025 | 0.989 ± 0.062 | 0.995 ± 0.064 | 0.972 ± 0.081 |
| COc1c(OCCCN2CCOCC2)ccc2c1N=C(NC(=O)c1cnc(N)nc1)N1CCN=C21 [Copanlisib] | 0.977 ± 0.031 | 0.932 ± 0.023 | 0.947 ± 0.056 | 0.638 ± 0.087 | 0.571 ± 0.05 | 0.494 ± 0.023 | 0.344 ± 0.013 | 0.218 ± 0.0085 | 0.0703 ± 0.0047 | 0.007 ± 0.00036 | 0.0101 ± 0.0011 |
| CCN1CCN(Cc2ccc(Nc3ncc(F)c(-c4cc(F)c5nc(C)n(C(C)C)c5c4)n3)nc2)CC1 [Abemaciclib] | 0.975 ± 0.016 | 0.9649 ± 0.0077 | 0.988 ± 0.02 | 0.961 ± 0.027 | 0.908 ± 0.047 | 0.771 ± 0.038 | 0.638 ± 0.014 | 0.544 ± 0.015 | 0.526 ± 0.074 | 0.447 ± 0.057 | 0.292 ± 0.023 |
| C[C@]1(O)C[C@@H](c2nc(-c3ccc4ccc(-c5ccccc5)nc4c3)c3c(N)nccn32)C1 [Linsitinib] | 0.986 ± 0.02 | 0.992 ± 0.034 | 0.982 ± 0.017 | 0.967 ± 0.015 | 0.928 ± 0.014 | 0.8432 ± 0.005 | 0.661 ± 0.017 | 0.451 ± 0.028 | 0.382 ± 0.016 | 0.354 ± 0.018 | 0.309 ± 0.0052 |
| Cc1ccc(NC(=O)c2ccc(CN3CCN(C)CC3)cc2)cc1Nc1nc(-c2cccnc2)cs1 [Masitinib] | 0.959 ± 0.018 | 0.957 ± 0.034 | 0.9656 ± 0.0031 | 0.965 ± 0.032 | 0.948 ± 0.041 | 0.985 ± 0.011 | 0.912 ± 0.047 | 0.86 ± 0.05 | 0.726 ± 0.043 | 0.519 ± 0.027 | 0.183 ± 0.0068 |
| CN1CCN(c2ccc3nc(-c4c(N)c5c(F)cccc5[nH]c4=O)[nH]c3c2)CC1 [Dovitinib] | 0.955 ± 0.025 | 0.944 ± 0.067 | 0.949 ± 0.024 | 0.943 ± 0.026 | 0.937 ± 0.014 | 0.893 ± 0.021 | 0.899 ± 0.045 | 0.829 ± 0.027 | 0.575 ± 0.013 | 0.24 ± 0.019 | 0.0296 ± 0.0072 |
